Measured values published in the NIST ThermoML archive (doi:10.1021/je100776x).

Legend:
[1] = Liquid; for mass density: 298.15 K, 101.33 kPa, Vibrating tube method; for Normal boiling temperature: Ebulliometric method (Recirculating still)
[2] = refractive index (Na D-line) (dimensionless); settings: 298.15 K; 101.33 kPa; Liquid; Standard Abbe refractometry

C1CCCCC1 [cyclohexane]
Settings	Normal boiling temperature [°C]	mass density [kg/m3]	refractive index
[1]	80.58	773.82	–
[2]	–	–	1.4238

C1=CCCCC1 [cyclohexene]
Settings	Normal boiling temperature [°C]	mass density [kg/m3]	refractive index
[1]	82.82	805.69	–
[2]	–	–	1.4444

CC(=O)CC(C)C [4-methylpentan-2-one]
Settings	mass density [kg/m3]	refractive index
[1]	796.03	–
[2]	–	1.3942

[1]
Settings	vapor or sublimation pressure [kPa]
343.76 K	22.45
346.51 K	24.97
349.09 K	27.43
351.46 K	29.98
353.65 K	32.46
355.76 K	35.07
357.68 K	37.44
359.54 K	39.99
361.33 K	42.54
362.97 K	44.96
364.61 K	47.52
366.15 K	50.02
367.55 K	52.44
369.05 K	55.08
370.35 K	57.48
371.66 K	59.96
372.96 K	62.51
374.22 K	65.08
375.35 K	67.44
376.56 K	70.07
377.63 K	72.41
378.73 K	74.98
379.78 K	77.41
380.83 K	79.93
381.84 K	82.44
382.84 K	84.96
383.8 K	87.44
384.71 K	89.85
385.67 K	92.47
386.6 K	95.07
387.45 K	97.46
387.82 K	98.52
388.33 K	99.98
388.78 K	101.33
